Laboratory results published in patent US20250275954A1, “USE OF KYNURENIC ACID RESISTING HYPERURICEMIA AND STRUCTURAL ANALOG THEREOF IN PREPARATION OF XOD INHIBITOR” (JIMEI UNIVERSITY, priority 2023, published 2025).
Entries after “also recorded” stand apart in the source; their conditions may differ.

Columns and labels:
[1] = molecular target: XOD (xanthine oxidase) (Homo sapiens, UniProt P47989); experiment: In vitro XOD enzyme activity inhibition (xanthine substrate, uric acid measured at 290 nm); format: biochemical; details: for inhibition at 1000 µM: compound concentration 1 mM (FIG. 11), read-out: xanthine oxidase inhibitory activity at 1 mM; for IC50: in vitro, inhibitor co-reacted with XOD 10 min, xanthine substrate, 290 nm, read-out: XOI IC50 (XOD inhibitory activity)
XOD (xanthine oxidase), sequence (P47989 whole entry, species assumed): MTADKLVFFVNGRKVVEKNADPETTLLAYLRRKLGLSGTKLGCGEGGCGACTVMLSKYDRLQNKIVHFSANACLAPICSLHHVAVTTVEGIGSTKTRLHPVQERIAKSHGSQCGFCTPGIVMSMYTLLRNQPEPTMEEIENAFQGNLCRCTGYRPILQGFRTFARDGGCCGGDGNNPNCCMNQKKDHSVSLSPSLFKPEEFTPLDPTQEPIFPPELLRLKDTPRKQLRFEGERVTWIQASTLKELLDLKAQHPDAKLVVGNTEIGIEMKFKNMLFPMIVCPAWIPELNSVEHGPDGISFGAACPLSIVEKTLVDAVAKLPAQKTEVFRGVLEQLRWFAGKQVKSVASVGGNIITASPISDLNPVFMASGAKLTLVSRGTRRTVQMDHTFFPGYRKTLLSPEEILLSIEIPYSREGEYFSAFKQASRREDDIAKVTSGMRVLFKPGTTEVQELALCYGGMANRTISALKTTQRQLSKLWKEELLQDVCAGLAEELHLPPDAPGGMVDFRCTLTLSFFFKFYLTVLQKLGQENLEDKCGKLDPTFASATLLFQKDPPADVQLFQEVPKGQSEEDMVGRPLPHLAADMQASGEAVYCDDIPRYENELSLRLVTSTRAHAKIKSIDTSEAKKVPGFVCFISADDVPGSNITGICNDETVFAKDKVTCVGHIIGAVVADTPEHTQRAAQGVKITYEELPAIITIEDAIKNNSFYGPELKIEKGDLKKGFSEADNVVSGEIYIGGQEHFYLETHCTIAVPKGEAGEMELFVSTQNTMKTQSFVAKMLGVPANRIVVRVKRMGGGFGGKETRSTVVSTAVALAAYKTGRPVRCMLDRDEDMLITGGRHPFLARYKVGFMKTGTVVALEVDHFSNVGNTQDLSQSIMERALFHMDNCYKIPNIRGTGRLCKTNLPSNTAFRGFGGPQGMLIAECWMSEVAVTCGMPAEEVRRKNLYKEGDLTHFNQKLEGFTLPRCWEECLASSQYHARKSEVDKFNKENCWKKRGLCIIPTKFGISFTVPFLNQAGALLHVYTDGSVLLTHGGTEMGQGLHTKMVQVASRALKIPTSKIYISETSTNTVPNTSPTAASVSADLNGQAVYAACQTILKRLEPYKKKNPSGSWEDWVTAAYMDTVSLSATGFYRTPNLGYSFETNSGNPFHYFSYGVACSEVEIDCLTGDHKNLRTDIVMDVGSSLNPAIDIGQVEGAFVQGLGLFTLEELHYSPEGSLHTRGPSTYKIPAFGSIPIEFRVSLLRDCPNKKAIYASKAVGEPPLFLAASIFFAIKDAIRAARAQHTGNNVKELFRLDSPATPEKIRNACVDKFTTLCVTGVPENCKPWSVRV
Procedure: The inhibitory effect of quinoline structural analogs on XOD was evaluated by co-reacting an inhibitor with XOD for 10 min, adding a certain concentration of a reaction substrate xanthine, and measuring the amount of uric acid produced at 290 nm.

[2] = tested on: adenosine deaminase (ADA); experiment: Serum adenosine deaminase activity (ADA) in hyperuricemic mice (peroxidase method kit); format: in vivo, Kunming mice
From the text: (§1) 36 SPF-grade male Kunming mice with relatively consistent posture and good health were randomly divided into a normal control group, a model group, a positive control group, a kynurenic acid low dose group (KA-L), a kynurenic acid medium dose group (KA-M) and a kynurenic acid high dose group (KA-H), with six experimental mice in each group. The normal control group received daily gavage of an equal amount of CMC-Na solution and injection of an equal amount of saline, and the remaining groups received daily gavage of 500 mg/kg hypoxanthine (HX) and intraperitoneal injection of 300 mg/kg potassium oxazinate (PO). […] Oral gavage was continued for 21 days. Data were analyzed for correlation and significance by using SPSS 23.0 software, and differences between the groups were compared by using one-way ANOVA, *p<0.05 indicates a significant difference, **p<0.01 indicates a very significant difference, and the data were expressed as X±SD.
At the end of the experiment on day 21, the mice in each group of Example 1 were subjected to blood collection from eyeballs of living bodies after being fasted for solids and liquids for 12 h. […]
Serum samples of Example 2 were taken, and ADA enzyme activity levels in the mouse serum samples were determined by using an adenosine deaminase activity (ADA) assay kit (a peroxidase method).

[3] = tested on: hyperuricemic mice; experiment: Serum creatinine (CRE) in hyperuricemic mice; format: in vivo, Kunming mice; details: day 21, vs model group (p<0.01), KA 7, 35, 70 mM/kg/day
From the text: as §1, with “X±SD. […]” for “X±SD.”
Serum samples of Example 2 were taken and the CRE content of the mouse serum samples was measured by using a creatinine (CRE) assay kit (sarcosine oxidation), and experimental operations and data calculation were performed in strict accordance with the kit instructions.

[4] = tested on: hyperuricemic mice; experiment: Serum uric acid in hyperuricemic mice (UA test kit); format: in vivo, Kunming mice; details: for serum uric acid level: hyperuricemic mice, day 21, vs model group (p<0.01), KA 7, 35, 70 mM/kg/day, allopurinol 35 mM/kg/day, gavage
Procedure: (§2) The normal control group received daily gavage of an equal amount of CMC-Na solution and injection of an equal amount of saline, and the remaining groups received daily gavage of 500 mg/kg hypoxanthine (HX) and intraperitoneal injection of 300 mg/kg potassium oxazinate (PO). […] Oral gavage was continued for 21 days. Data were analyzed for correlation and significance by using SPSS 23.0 software, and differences between the groups were compared by using one-way ANOVA, *p<0.05 indicates a significant difference, **p<0.01 indicates a very significant difference, and the data were expressed as X±SD.
At the end of the experiment on day 21, the mice in each group of Example 1 were subjected to blood collection from eyeballs of living bodies after being fasted for solids and liquids for 12 h. After sufficient blood samples were collected, they were allowed to stand at room temperature for 30 min and then centrifuged (3500 rpm, 10 min). A supernatant was taken and stored at −20° C. for standby application.
Serum uric acid levels in target mice were detected by using a uric acid (UA) test kit. The serum uric acid level is an important evaluation index of drug improvement in hyperuricemia.

[5] = Body weight of hyperuricemic mice; format: in vivo, Kunming mice; details: hyperuricemic mice (HX + PO), daily gavage KA 7, 35 or 70 mM/kg, 21 days
Procedure: SPF-grade male Kunming mice (8 weeks old), 35±5 g, were purchased from Changzhou Cavens Laboratory Animal Co., Ltd. Animal quality was tested by Suzhou Xishan Biotechnology Co., Ltd.
Experimental mice were housed in a clean animal feeding room, and feeding and experimental operations were performed according to the standards of the Animal Experimental Center, and the animal feeding room and an operating workbench were cleaned and disinfected daily. All experimental mice were housed in a comfortable environment (temperature: 25±2° C., humidity: 40%-70%, 12 hours of day and night cycle) with good ventilation and daily supplementation of feed and drinking water.
36 SPF-grade male Kunming mice with relatively consistent posture and good health were randomly divided into a normal control group, a model group, a positive control group, a kynurenic acid low dose group (KA-L), a kynurenic acid medium dose group (KA-M) and a kynurenic acid high dose group (KA-H), with six experimental mice in each group. […] Data were analyzed for correlation and significance by using SPSS 23.0 software, and differences between the groups were compared by using one-way ANOVA, *p<0.05 indicates a significant difference, **p<0.01 indicates a very significant difference, and the data were expressed as X±SD. […]

[6] = molecular target: T1, XOD (Mus musculus, UniProt Q00519); experiment: Serum XOD enzyme activity in hyperuricemic mice (colorimetric kit); format: in vivo, Kunming mice; details: day 21, vs model group (p<0.01), KA 7, 35, 70 mM/kg/day, allopurinol 35 mM/kg/day
T1 construct: from tissue; host or cells: liver homogenate of male Kunming mice (hyperuricemia model)
T1 sequence (Q00519 whole entry): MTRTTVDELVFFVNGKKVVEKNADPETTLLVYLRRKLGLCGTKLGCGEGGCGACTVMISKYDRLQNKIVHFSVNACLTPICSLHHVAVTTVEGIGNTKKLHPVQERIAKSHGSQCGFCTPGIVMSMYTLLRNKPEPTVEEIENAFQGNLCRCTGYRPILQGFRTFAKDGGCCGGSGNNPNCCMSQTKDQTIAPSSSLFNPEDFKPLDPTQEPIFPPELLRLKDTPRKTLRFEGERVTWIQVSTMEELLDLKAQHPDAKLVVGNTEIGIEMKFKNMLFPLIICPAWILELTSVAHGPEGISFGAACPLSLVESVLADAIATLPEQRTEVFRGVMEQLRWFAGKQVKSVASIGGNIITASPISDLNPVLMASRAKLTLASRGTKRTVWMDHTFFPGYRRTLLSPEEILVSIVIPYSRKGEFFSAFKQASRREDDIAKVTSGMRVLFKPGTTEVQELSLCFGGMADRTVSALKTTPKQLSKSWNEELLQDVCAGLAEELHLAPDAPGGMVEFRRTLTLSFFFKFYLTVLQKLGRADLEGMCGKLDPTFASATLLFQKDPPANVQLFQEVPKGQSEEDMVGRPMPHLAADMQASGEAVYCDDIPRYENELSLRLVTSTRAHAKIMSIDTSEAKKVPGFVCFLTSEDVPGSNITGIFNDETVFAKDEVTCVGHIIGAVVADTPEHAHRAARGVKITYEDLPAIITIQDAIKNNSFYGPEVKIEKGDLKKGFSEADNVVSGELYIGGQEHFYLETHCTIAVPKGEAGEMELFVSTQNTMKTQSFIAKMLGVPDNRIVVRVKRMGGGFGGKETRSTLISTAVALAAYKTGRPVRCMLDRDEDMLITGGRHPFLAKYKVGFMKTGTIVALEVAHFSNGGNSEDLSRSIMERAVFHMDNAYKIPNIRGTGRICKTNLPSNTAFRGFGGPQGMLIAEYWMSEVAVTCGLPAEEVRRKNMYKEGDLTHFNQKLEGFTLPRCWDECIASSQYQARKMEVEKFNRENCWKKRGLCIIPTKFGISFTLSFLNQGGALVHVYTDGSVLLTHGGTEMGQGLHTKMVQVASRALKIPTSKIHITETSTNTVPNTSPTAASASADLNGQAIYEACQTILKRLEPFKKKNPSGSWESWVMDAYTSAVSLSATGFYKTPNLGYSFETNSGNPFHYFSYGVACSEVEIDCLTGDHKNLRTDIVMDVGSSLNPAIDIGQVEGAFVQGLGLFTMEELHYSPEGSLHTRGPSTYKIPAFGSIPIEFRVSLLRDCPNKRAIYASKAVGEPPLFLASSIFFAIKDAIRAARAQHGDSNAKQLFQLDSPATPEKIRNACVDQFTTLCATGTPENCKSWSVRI
Procedure: as §2
After sufficient blood samples were collected, they were allowed to stand at room temperature for 30 min and then centrifuged (3500 rpm, 10 min). A supernatant was taken and stored at −20° C. for standby application.

[7] = tested on: hyperuricemic mice; experiment: Blood urea nitrogen (BUN) in hyperuricemic mice; format: in vivo, Kunming mice
From the text: as §1, with “X±SD. […]” for “X±SD.”
Serum samples of Example 2 were taken and the blood urea nitrogen (BUN) content in the mouse serum samples was measured by using a blood urea nitrogen (BUN) assay kit (a urease method), and experimental operations and data calculation were performed in strict accordance with the kit instructions.

[8] = molecular target: T1, XOD; experiment: Hepatic XOD enzyme activity in hyperuricemic mice; format: in vivo, Kunming mice; details: liver homogenate, day 21, vs model group (p<0.01); KA 7, 35, 70 mM/kg/day
From the text: as §1
Serum samples of Example 2 were taken, and the XOD enzyme activity levels in the mouse serum samples were determined by using a xanthine oxidase (XOD) assay kit (a colorimetric method), and experimental operations and data calculation were performed in strict accordance with the kit instructions. […]

[9] = tested on: hyperuricemic mice; experiment: Hepatic uric acid in hyperuricemic mice; format: in vivo, Kunming mice; details: liver homogenate, day 21 (p<0.01); KA 7, 35, 70 mM/kg/day; allopurinol 35 mM/kg/day
From the text: as §1
Serum uric acid levels in target mice were detected by using a uric acid (UA) test kit. […]
On day 21, the mice in each group of Example 1 were quickly sacrificed by cervical dislocation after being fasted for solids and liquids for 12 h and livers were collected for weighing and subpackaging. […] Uric acid levels in the mouse liver homogenate samples were determined by using the method described in Example 2. […]

[10] = hyperuricemic mice, day 21, vs model group (p<0.01), KA 7, 35, 70 mM/kg/day

SMILES | inhibition at 1000 µM [1] [%] | IC50 [1] [mM] | serum uric acid level [4] | hepatic uric acid level [9] | also measured
O=C(O)c1cnc2ccc(O)cc2c1 [Compound 5, 6-Hydroxyquinoline-3-carboxylic acid] | > 50 | 0.5 ± 0.13 | – | – | –
CCOC(=O)c1cc(O)c2ccccc2n1 [Compound 7, Ethyl 4-hydroxyquinoline-2-carboxylate] | – | 5.65 ± 0.1 | – | – | –
O=C(O)c1cc(O)nc2ccccc12 [Compound 11, 2-Hydroxyquinoline-4-carboxylic acid] | – | 1.61 ± 0.07 | – | – | –
O=C(O)c1nc2ccccc2cc1O [Compound 13, 3-Hydroxyquinoline-2-carboxylic acid] | > 50 | 0.97 ± 0.05 | – | – | –
O=C(O)c1cc(O)c2ccccc2n1 [KA, Kynurenic acid] | – | 1.99 ± 0.26 | significantly reduce | reduce hepatic UA levels in a concentration-dependent manner; also recorded: reduce hepatic uric acid levels in a concentration-dependent manner; also recorded: gradient decline | serum ADA enzyme activity, comparison among KA doses ([2]; KA-H, 70 mM/kg/day, day 21): the most significant; serum ADA enzyme activity [2, 10]: effectively reduce; also recorded: significantly reduced; serum creatinine (CRE) level [3]: significantly reduces; also recorded: significantly decrease; serum uric acid level, comparison among KA doses ([4]; KA-H, 70 mM/kg/day, day 21): most pronounced; growth status and body weight [5]: no significant effect; also recorded: no significant impact; also recorded: did not affect; serum XOD enzyme activity [6]: reduce serum XOD enzyme activity in hyperuricemic mice to varying degrees; BUN level compared with the positive control group ([7]; KA-M and KA-H (35 and 70 mM/kg/day) vs allopurinol 35 mM/kg/day (p<0.01)): reduce BUN levels in the mice more significantly; blood urea nitrogen (BUN) level [7, 10]: significantly reduces; also recorded: significantly decrease; hepatic XOD enzyme activity [8]: effectively inhibit; also recorded: decreased significantly
Oc1ncnc2[nH]ncc12 [allopurinol, reference compound] | – | – | significantly inhibited the increase | significantly reduced | xanthine oxidase inhibitory activity at various concentrations ([1]; FIG. 10A to 10R): concentration-dependent
